Data published in US4795752A, “Amide derivatives and antiallergic agents containing the same” (Terumo Kabushiki Kaisha, priority 1985, dated 1989).

Test system: PCA reaction
Experiment: PCA reaction-inhibitory effects in rats (passive cutaneous anaphylaxis, oral administration, Evans Blue dye exudation)
Assay type: in vivo, rats (female Sprague-Dawley)
Settings: for Inhibition (%) mean ± SE: one hour before challenge; for ED50: Rattus norvegicus, from the percent inhibition-concentration graph, read-out: ID50 against exudation of the dye
Protocol: DNP-ascaris (1 mg) prepared by combining a swine ascaris extract with 2,4-dinitrophenyl sulfate was mixed with 20 mg of aluminum hydroxide gel. The mixture was administered to rats subcutaneously on the back, and at the same time the animals were intraperitoneally given 2×10^10 dead Bordetella pertussis respectively. The same procedures were repeated after 14 days, and blood sample was obtained after 21 days to produce antisera.
Female Sprague-Dawley strain rats (8 weeks old) were sensitized by subcutaneously administering 0.1 ml of 1:256 diluted antisera (titer=1024)respectively on the grained back. After 48 hours, groups of four rats were orally given the amide derivatives produced in the examples above at various concentrations. After one hour, the rats were challenged by intravenously administering a 0.5% physiological saline solution of Evans Blue containing 1 mg of the DNP-ascaris from the tail. After 30 minutes, the animal was sacrificed by bleeding and the portion of the skin with the dye exuded was cut off. The cut skin was treated with 1N--KOH solution, and the dye was extracted by adding 9 ml of 0.6N-phosphoric acid-acetone (5:13) mixture. The supernatant from centrifugal separation was measured for absorbancy at 620 nm to determine amount of the dye. Percent inhibition at each of the concentrations of the amide derivatives was calculated in comparison with amount of the dye for control group. 50% Inhibitory concentration (ID50) of the amide derivatives against exudation of the dye was determined from the percent inhibition-concentration graph. Results are shown in Table-I. Percent inhibition of tranilast, an antiallergic agent commercially available from Kissei Pharmaceutical Co., Ltd. under the trade name of Rizaben against PCA reaction was also shown in Table-I. As shown in Table-I, the amide derivatives of the invention produced high PCA reaction-inhibitory effects.

Structure (SMILES)	Inhibition (%) mean ± SE (3 mg/kg) [%]	Inhibition (%) mean ± SE (10 mg/kg) [%]	Inhibition (%) mean ± SE (30 mg/kg) [%]	ED50 [mg/kg]	Inhibition (%) mean ± SE (100 mg/kg) [%]	Inhibition (%) mean ± SE (200 mg/kg) [%]	Inhibition (%) mean ± SE (300 mg/kg) [%]
CCOC(=O)Oc1ccc(/C=C/C=C/C(=O)NCCN2CCC(OC(c3ccccc3)c3ccccc3)CC2)cc1OC [Example 1, 1-[2-[5-(3-methoxy-4-ethoxycarbonyloxyphenyl)-2,4-pentadienoyl]aminoethyl]-4-benzhydroxypiperidine]	26 ± 15	51 ± 18	71 ± 6	10			
CCOC(=O)Oc1ccc(/C=C/C=C/C(=O)NCCN2CCC(OC(c3ccccc3)c3ccccc3)CC2)cc1OC(=O)OCC [Example 5, 1-[2-[5-(3,4-diethoxycarbonyloxyphenyl)-2,4-pentadienoyl]aminoethyl]-4-benzhydroxypiperidine]	30 ± 16	55 ± 10	75 ± 4				
CCOC(=O)Oc1ccc(/C=C/C(=O)NCCN2CCC(OC(c3ccccc3)c3ccccc3)CC2)cc1OC [Example 2, 1-[2-[3-(3-methoxy-4-ethoxycarbonyloxyphenyl)-2-propenoyl]-aminoethyl]-4-benzhydroxypiperidine]	20 ± 15	41 ± 16	64 ± 5	15			
COc1ccc(/C=C/C(=O)Nc2ccccc2C(=O)O)cc1OC [Control, tranilast, reference compound]				> 300	37 ± 8	40 ± 10	42 ± 5
CCOC(=O)Oc1ccc(/C=C/C(=O)NCCN2CCC(OC(c3ccccc3)c3ccccc3)CC2)cc1OC(=O)OCC [Example 4]	22 ± 14	46 ± 10	68 ± 7	12			
CCOC(=O)Oc1ccc(/C=C/C=C/C(=O)NCCCN2CCN(C(c3ccccc3)c3ccccc3)CC2)cc1OC [Example 3, 1-[3-[5-(3-methoxy-4-ethoxycarbonyloxyphenyl)-2,4-pentadienoyl]aminopropyl]-4-benzhydrylpiperazine]		19 ± 14	38 ± 15	55	63 ± 5		
